The source of these data is patent publication US12134769B2, “MicroRNA-198 as a tumor suppressor in ovarian cancer” (Baylor College of Medicine, priority 2011, dated 2024).

The test system of one series is COS-7 cells. Kind of series: Co-transfection with MSLN ORF construct, western blot. Format: cell-based. As to conditions: COS-7 cells co-transfected with WT MSLN plasmid and miR-198 precursors. The source says: A MSLN ORF clone was purchased from Origene (RC202532). Site-directed mutagenesis was used to generate constructs containing silent mutations in each of the three predicted miR-198 binding sites within the CDS of the MSLN gene (FIG. 13). MiR-198 precursors or a scrambled miRNA control were co-transfected into COS-7 cells along with either the WT MSLN ORF construct or each of the single, double, or triple mutants. Cell lysates were collected for western blot analysis. RNA and miRNA were collected for real-time RT-PCR analysis.

The next series concerns HPDE cells. Kind of series: Migration assay. Format: cell-based. As to conditions: 72 h. Here is the method: Cell migration was determined with a modified Boyden chamber assay as described previously (Li et al., 2008). For invasion assays, Matrigel basement membrane matrix (BD Biosciences) was used by adding 100 ul of 1 mg/ml Matrigel to the migration chamber inserts prior to plating of the cells (Li et al., 2008, Bharadwaj).

For the substance “miR-198: microRNA-198, SEQ ID NO: 1 gguccagaggggagauagg; used as transfected precursors (Ambion) or Lenti-miR stable overexpression (GGUCCAGAGGGGAGAUAGG; listed as RNA, chemistry not given here; listed as Homo sapiens)”, the “expression of WT MSLN protein” value in the series with COS-7 cells is listed as “abolished expression of the WT MSLN protein”. In the series with HPDE cells, the migration result was “did not seem to have an effect”.
